Test results published in patent US20070009503A1, “Antibiotic, Compositions Containing the Antibiotic, and Methods for Administering the Antibiotic and/or Said Compositions to Livestock” (priority 2004, published 2007).
Where no end group is shown, it is not given here.

Test system: Lactobacillus sakei JCM1157
Assay: Growth inhibition zones on MRS agar plates containing protease Umamizyme G, overlaid with indicator strain
Assay type: cell-based
Details: Example 2, protease 0 U/mL
Method: The lactic acid bacterium Weissella sp. AJ110263 (FERM P-19577), isolated from fermented milk matsoon, and the lactic acid bacteria Pediococcus pentosaceus JCM5885, Pediococcus pentosaceus JCM5890, Lactobacillus plantarum JCM1149, and Lactobacillus salivarius JCM1231, obtained from type cultures, were precultured and cultured on MRS liquid medium (Table 1 above). The culture temperature was 30° C. for Weissella sp. and 37° C. for the other strains. The above lactic acid bacteria were inoculated onto and cultured for 24 hours on MRS agar medium plates to which “Umamizyme G”, a protease derived from Aspergillus, had been added in quantities of 0 U/mL (none added), 200 U/ML, and 400 U/mL. In culturing, 100 mL of MRS medium was added to a 500 mL Sakaguchi flask, […] was inoculated, and the medium was shaken 100 times/min.
These plates were cultured for 24 hours at 30° C., resulting in the formation of growth inhibition zones in the indicator strains (Table 10 below).
Lactococcus lactis NCD0497 (a bacterium producing nisin A) and Lactococcus lactis NCIMB702054 (a bacterium producing nisin Z) were separately cultured in MRS liquid medium at 30° C. In the same manner as in Example 1, antibiotic evaluation was conducted using Lactobacillus sakei strain JCM1157 as an indicator strain. […]

Nisin A: nisin A 1,000 IU/mL solution made by ICN Biomedical, spotted without bacterial strains (ITSISLCTPGCKTGALMGCNMKTATCHCSIHVSK; also: lantibiotic, lanthionine bridges and dehydro residues not placed; UniProt P13068 24-57, looked up)
diameters of the proliferation inhibition zones: 30
